Marks after values point to notes of the source that are not given here. Where a SMILES comes first, the peptide text is derived from it. Where no end group is shown, it is not given here. [ ]: non-standard residue; d: D form.
Key:
[1] = Peptide stability in FBS by residual IP3 production; format: in vitro ADME, bovine; conditions: peptide 1 μM in 100% FBS, 37 °C, 0, 3, 6, 12, 24, 48, 72 h; residual activity read as IP3 production ([3H]-inositol) in HEK293 cells expressing GALR2; mean ± S.E., at least three independent experiments
Experimental: (§1) To investigate the effects of the modifications on proteolytic susceptibility, the functional activity of peptides that were incubated in 100% serum at 37 °C for 0, 3, 6, 12, 24, 48, and 72 h was determined via inositol 1,4,5-triphosphate (IP3) production in GALR2-expressing cells (Fig. 4A–C and Table 3). […] In addition, dAla4 and dGln14 substitutions contribute to longer longevity of the peptide in serum. In an additional experiment, we examined the degradation rates of the Qu mutant, as well as the Qu mutant with an N-terminal modification and/or dAla4 and dGln14 substitutions.
(§2) Figure 4 Stability of SPX mutants in the presence of FBS (A) Qu analogs in FBS (B) and human serum (C). Potency of Qu mutants toward GALR2 (D) and GALR3 (E). For stability of SPX mutants, peptides (1 μM) were incubated in serum for 0, 3, 6, 12, 24, 48, and 72 hrs. The remaining activities of the peptides were determined by measuring IP3 production by HEK293 cells that express GALR2 after the indicated times. IP3 production was expressed as percent change, where 100% indicates IP3 production by WT SPX incubated in FBS or human serum for 0 h. For potency of Qu mutants toward GALR2 and GALR3, the SRE-luc reporter vector and plasmid containing human GALR2 or GALR3 were transfected into HEK293 cells that stably expressed Gqi protein. Cells were then treated with increasing concentrations of mutant peptides, and the receptor activities were determined using the SRE-luc reporter system.
(§3) To evaluate the stability of SPX and its analogs in FBS or human serum, peptides were incubated at an initial concentration of 1 μM in 100% serum at 37 °C for 0, 3, 6, 12, 24, 48, and 72 hours. Residual peptide activity was then assessed by measuring IP3 in HEK293 cells expressing GALR2. For the IP3 assay, cells were seeded in 12-well plates at a density of 2.5 × 10^5 cells per well, and then the next day, cells were transiently transfected with 1 μg/well of plasmid containing GALR2 using the Lipofectamine 2000 (Invitrogen) transfection reagent. The day following transfection, cells were incubated in M199 media containing 1% FBS, 1% L-glutamine, 1% penicillin/streptomycin, and 1 μCi/well of myo-^3H inositol for 20 h. After a 30-min incubation in buffer A (140 mM NaCl, 20 mM Hepes, 4 mM KCl, 8 mM D-glucose, 1 mM MgCl2, 1 mM CaCl2, 1 mg/ml free fatty acid bovine serum albumin (BSA), and 10 mM LiCl at pH 7.2), cells were treated with the agonist for 40 min at 37 °C. Media was removed, and the reactions were terminated by addition of 1 ml of 10 mM cold formic acid to each well. The plates were stored at 4 °C for 30 min, and the extracts were then transferred into 6-ml plastic tubes containing 500 μl AG1–8X anion exchange columns (BIO-RAD). The tubes were gently mixed with a vortexer, and the supernatants were removed by aspiration. Two washes with 1 ml of distilled water were performed followed by two additional washes with 60 mM ammonium formate/5mM sodium tetraborate. Tritiated inositol was separated from the column by elution with 1 ml of 1 M ammonium formate/0.1 M formic acid, and 800 μl from the elution were taken from each tube and transferred into 6-ml scintillation vials. Then, 2 ml of scintillation cocktail solution (Ultima Gold^TM, Perkin Elmer, Waltham MA, USA) was added to each sample. The radioactivity of [^3H]-myo-inositol samples was measured using a TRI carb 3100TR liquid scintillation analyzer (Packard).

[2] = Peptide stability in human serum by residual IP3 production; format: in vitro ADME; conditions: peptide 1 μM in 100% human serum, 37 °C, 0, 3, 6, 12, 24, 48, 72 h; residual activity read as IP3 production ([3H]-inositol) in HEK293 cells expressing GALR2; mean ± S.E., at least three independent experiments
Experimental: as §1, §2, §3

human GALR3 = molecular target: T1, human GALR3 (Homo sapiens, UniProt O60755); assay: SRE-luc reporter assay, GALR3;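 note: luciferase activity read in cell lysates across rising peptide concentrations, EC50 being the agonist concentration giving half-maximal stimulation from a sigmoidal nonlinear fit, Gαqi routing Gi-coupled receptor signaling through Gq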; format: cell-based; conditions: HEK293-Gqi cells transfected with SRE-luc and human GALR3; 6 h ligand treatment; mean ± S.E. of at least three independent experiments; NM = not measurable; read-out: GALR3 EC50
T1 construct: host or cells: HEK293 cells stably expressing Gαqi
T1 sequence (O60755 1-368): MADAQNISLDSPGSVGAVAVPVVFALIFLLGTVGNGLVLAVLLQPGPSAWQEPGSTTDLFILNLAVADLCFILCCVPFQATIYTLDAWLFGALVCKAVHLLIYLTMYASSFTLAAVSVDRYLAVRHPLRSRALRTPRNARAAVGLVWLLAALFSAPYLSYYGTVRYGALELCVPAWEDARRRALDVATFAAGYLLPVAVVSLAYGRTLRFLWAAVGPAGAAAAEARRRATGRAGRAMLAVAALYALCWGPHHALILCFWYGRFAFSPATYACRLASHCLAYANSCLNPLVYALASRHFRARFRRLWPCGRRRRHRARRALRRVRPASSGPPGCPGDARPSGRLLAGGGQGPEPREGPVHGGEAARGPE
Experimental: (§4) The generated mutant SPX peptides were incubated with cells expressing GALR2 and GALR3. […] The activities of the receptors were traced using the serum-response element-driven luciferase (SRE-luc) assay system.
(§5) The SRE-luc reporter vector and plasmid containing human GALR1, GALR2, or GALR3 were transfected into HEK293 cells that stably expressed Gqi protein. Cells were then treated with increasing concentrations of mutant peptides, and the receptor activities were determined using the SRE-luc reporter system.
(§6) HEK293 cells stably expressing Gαqi, which mediates Gαi-coupled receptor activation by stimulating Gαq-dependent signaling pathways[59], were maintained in Dulbecco’s modified Eagle’s medium (DMEM) supplemented with 10% FBS, 100 U/ml penicillin G, and 100 μg/ml streptomycin (Invitrogen). Cells were seeded in 48-well plates at a density of 2 × 10^4 cells per well, one day before transfection. A mixture containing 75 ng of the SRE-luc reporter construct, 75 ng of expression plasmid, and 2 μl of Effectene reagent (Qiagen, Chatsworth, CA, USA) was prepared and added to each well according to the manufacturer’s instructions. Cells were then maintained in serum-free DMEM for 16–18 h before treatment with the ligands. Approximately 48 h after transfection, cells were treated with the respective ligands for 6 h. Cells were lysed by the addition of 100 μl lysis buffer. The luciferase activity in 50 μl of cell extract was determined by a luciferase assay system according to the standard protocol for the Synergy 2 Multi-Mode Microplate Reader (BioTek, Winooski, VT, USA).
(§7) For in vitro studies data analysis was performed by nonlinear regression with a sigmoidal dose-response. The agonist concentrations that induced half-maximal stimulation (EC50) or half-maximal inhibition of binding (IC50) were calculated with GraphPad PRISM4 software (GraphPad Software Inc., San Diego, CA, USA). […] All data are presented as mean ± S.E. of at least three independent experiments and a P value of P < 0.05 was considered statistically significant.

human GALR2 = molecular target: T2, human GALR2 (Homo sapiens, UniProt O43603); assay: SRE-luc reporter assay, GALR2;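 note: luciferase activity read in cell lysates after exposure to rising peptide concentrations, EC50 being the agonist level giving half-maximal stimulation from a sigmoidal nonlinear regression fit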; format: cell-based; conditions: HEK293-Gqi cells transfected with SRE-luc and human GALR2; 6 h ligand treatment; mean ± S.E. of at least three independent experiments; NM = not measurable; read-out: GALR2 EC50
T2 construct: host or cells: HEK293 cells stably expressing Gαqi
T2 sequence (O43603 1-387): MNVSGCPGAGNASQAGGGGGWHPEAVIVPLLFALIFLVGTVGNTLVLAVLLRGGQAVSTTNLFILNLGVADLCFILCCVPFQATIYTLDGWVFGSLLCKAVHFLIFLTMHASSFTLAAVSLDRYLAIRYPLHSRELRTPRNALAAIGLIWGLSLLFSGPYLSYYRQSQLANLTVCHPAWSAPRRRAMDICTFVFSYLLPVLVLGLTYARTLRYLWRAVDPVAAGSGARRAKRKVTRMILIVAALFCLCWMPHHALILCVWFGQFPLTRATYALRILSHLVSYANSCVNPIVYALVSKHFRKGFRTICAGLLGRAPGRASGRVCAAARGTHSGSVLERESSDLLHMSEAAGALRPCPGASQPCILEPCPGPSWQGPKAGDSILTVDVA
Experimental: as §4, §5, §6, §7

Half-life activity (h) in FBS [1]	Half-life activity (h) in Human Serum [2]	EC50 (human GALR3)	EC50 (human GALR2)	Compound
4.2 ± 0.1 ^a h	2.9 ± 0.1 ^a h	–	–	CC(C)C[C@H](NC(=O)[C@H](C)NC(=O)[C@H](C)NC(=O)[C@H](CC(N)=O)NC(=O)[C@@H]1CCCN1C(=O)[C@@H](NC(=O)[C@H](Cc1c[nH]c2ccccc12)NC(=O)[C@H](N)CC(N)=O)[C@@H](C)O)C(=O)N[C@@H](Cc1ccc(O)cc1)C(=O)N[C@@H](CC(C)C)C(=O)N[C@@H](Cc1ccccc1)C(=O)NCC(=O)N1CCC[C@H]1C(=O)N[C@@H](CCC(N)=O)C(N)=O [dN1-Qu] (H-[dN]WTPNAALYLFGPQ-NH2)
2.6 ± 0.2 h	2.0 ± 0.2 h	> 10000 nM	55 ± 9.24 nM	NWTPNAALYLFGPQ-NH2 [N5A7F11P13(Qu)]
